Values quoted from earlier work in patent US20080167477A1, “NOVEL POLYMORPHIC FORMS OF […] AND PROCESS FOR PREPARING THE SAME” (MATRIX LABORATORIES LIMITED, priority 2007, published 2008).

Conditions: compared to the free base of carvedilol; disclosed in WO 2004/002419

For `COc1ccccc1OCCNCC(O)COc1cccc2[nH]c3ccccc3c12.O=P(O)(O)O` (stereo not shown) [carvedilol dihydrogen phosphate], the solubility is given as “higher solubility when compared to the free base of carvedilol”.
